Experimental data as given in patent publication US5849797A, “D-β-lysylmethanediamine derivatives and preparation thereof” (Zaidan Hojin Biseibutsu Kagaku Kenkyu Kai, priority 1994, dated 1998).
Converted amounts (≈) assume the structure as drawn.

Experiments:
HIV (HTLV-IIIB strain) = test: microbe, parasite or virus in culture; type: cell-based; details: Human immunodeficiency virus 1, IIIB, MT4, 96 h, MT-4 cells, 4 days, 90 at 0 μg/ml, read-out: Rate (%) of presence of HIV antigen-positive cells; for activity at 0.1 µg/mL: 0.1 μg/ml; for activity at 1 µg/mL: 1 μg/ml; for activity at 10 µg/mL: 10 μg/ml
Bacillus anthracis = test: microbe, parasite or virus in culture; type: cell-based; details: 18 h
P. rettgeri GN466 = test: Antibacterial activity, MIC by serial dilution method; type: cell-based; details: Providencia rettgeri, 0.5% peptone agar, 37° C., 18 hours
Serratia marcescens = test: as above; type: cell-based; details: 0.5% peptone agar, 37° C., 18 hours
P. mirabilis IFM OM-9 = test: as above; type: cell-based; details: Proteus mirabilis, IFMOM9, 0.5% peptone agar, 37° C., 18 hours
[1] = test system: Shigella dysenteriae JS11910; test: as above; type: cell-based; details: JS11910, 18 h
[2] = test system: Pseudomonas aeruginosa A3; test: as above; type: cell-based; details: 0.5% peptone agar, 37° C., 18 hours
E. coli K-12 = test: as above; type: cell-based; details: Escherichia coli, K12, 0.5% peptone agar, 37° C., 18 hours
[3] = test system: Providencia rettgeri GN311; test: as above; type: cell-based; details: 0.5% peptone agar, 37° C., 18 hours
Proteus vulgaris OX19 = test: as above; type: cell-based; details: 0.5% peptone agar, 37° C., 18 hours
[4] = test system: Klebsiella pneumoniae PCI602; test: as above; type: cell-based; details: 0.5% peptone agar, 37° C., 18 hours
[5] = test system: Staphylococcus aureus FDA209P; test: as above; type: cell-based; details: 0.5% peptone agar, 37° C., 18 hours
Micrococcus luteus FDA16 = test: as above; type: cell-based; details: 0.5% peptone agar, 37° C., 18 hours
B. cereus ATCC10702 = test: as above; type: cell-based; details: Bacillus cereus, 0.5% peptone agar, 37° C., 18 hours
[6] = test system: mouse leukemia P388 cells; test: Antitumor activity, growth inhibition of mouse leukemia P388 cells; type: cell-based
Experimental: In this way, such concentration of the tested compound which can inhibit the growth of the P388 cells by 50%, that is, the IC50 -value of the tested compound against the P388 cells was estimated. For comparison purpose, Bellenamine was tested in the same manner as above.

S. flexnelli 4b JS1811 = test: Antibacterial activity, MIC by serial dilution method; type: cell-based; details: 0.5% peptone agar, 37° C., 18 hours
Experimental: The minimum inhibitory concentrations (MIC.) of (R)-3,6-diamino-N-(2-aminoethyl)hexanamide of the formula (Ia) and (R)-3,6-diamino-N-(3-aminopropyl)hexanamide of the formula (Ib) against the growth of various bacteria were determined by a serial dilution method on a 0.5% peptone agar medium (incubated at 37° C. for 18 hours). The results obtained are shown in Table 1 below, in comparison with the MIC. of D-β-lysylmethanediamine (Bellenamine).

Escherichia coli NIHJ = test: as above; type: cell-based; details: 0.5% peptone agar, 37° C., 18 hours
MT-4 cells = test: Cytotoxicity to MT-4 cells; type: cell-based, human; parameters: key: -: That the cytotoxicity was not observed; details: absence of HIV
Experimental: Furthermore, cytotoxicity of the tested compound to the MT-4 cells was estimated. This was done by incubating the MT-4 cells at varying concentrations of the tested compound and in the absence of HIV but in the same manner of incubation and under the same conditions of incubation of MT-4 cells as those employed in the above-mentioned test procedures of assaying the activity of the tested compound to inhibit the infection of T-cells with HIV. That the cytotoxicity was not observed is represented by the symbol "-" in Table 2 below.

B. subtilis NRRL B-558 = test: Antibacterial activity, MIC by serial dilution method; type: cell-based; details: Bacillus subtilis, NRRLB558, 0.5% peptone agar, 37° C., 18 hours
S. aureus Smith = test: as above; type: cell-based; details: Staphylococcus aureus, 0.5% peptone agar, 37° C., 18 hours
B. subtilis PC1219 = test: as above; type: cell-based; details: Bacillus subtilis, 0.5% peptone agar, 37° C., 18 hours
mice = test: Acute toxicity by intravenous injection to mice; type: in vivo; details: 250 mg/kg
Solubility = type: physicochemical; details: in water

NCCC[C@@H](N)CC(=O)NCN [Bellenamine, D-β-lysylmethanediamine]
activity at 0.1 µg/mL (HIV (HTLV-IIIB strain)): 50%
activity at 1 µg/mL (HIV (HTLV-IIIB strain)): 5%
activity at 10 µg/mL (HIV (HTLV-IIIB strain)): 10%
MIC (Bacillus anthracis): 100 µg/mL (≈ 574 µM)
MIC (P. rettgeri GN466): 100 µg/mL (≈ 574 µM)
MIC (Serratia marcescens): 200 µg/mL (≈ 1150 µM)
MIC (P. mirabilis IFM OM-9): 200 µg/mL (≈ 1150 µM)
MIC [1]: > 200 µg/mL
MIC [2]: 200 µg/mL (≈ 1150 µM)
MIC (E. coli K-12): > 200 µg/mL
MIC [3]: 50 µg/mL (≈ 287 µM)
MIC (Proteus vulgaris OX19): > 200 µg/mL
MIC [4]: > 200 µg/mL
MIC [5]: 50 µg/mL (≈ 287 µM)
MIC (Micrococcus luteus FDA16): > 200 µg/mL
MIC (B. cereus ATCC10702): 50 µg/mL (≈ 287 µM)
IC50 [6]: 0.36 µg/mL (≈ 2.07 µM)
MIC (S. flexnelli 4b JS1811): > 200 µg/mL
MIC (Escherichia coli NIHJ): 200 µg/mL (≈ 1150 µM)
Cytotoxicity (given in brackets) (MT-4 cells; 0.1 μg/ml): -
Cytotoxicity (given in brackets) (MT-4 cells; 1 μg/ml): -
Cytotoxicity (given in brackets) (MT-4 cells; 10 μg/ml): -
MIC (B. subtilis NRRL B-558): 12.5 µg/mL (≈ 71.7 µM)
MIC (S. aureus Smith): 6.25 µg/mL (≈ 35.9 µM)
MIC (B. subtilis PC1219): 12.5 µg/mL (≈ 71.7 µM)

NCCC[C@@H](N)CC(=O)NCCN [Compound (Ia), (R)-3,6-diamino-N-(2-aminoethyl)hexanamide]
activity at 0.1 µg/mL (HIV (HTLV-IIIB strain)): 90%
activity at 1 µg/mL (HIV (HTLV-IIIB strain)): 80%
activity at 10 µg/mL (HIV (HTLV-IIIB strain)): 30%
MIC (Bacillus anthracis): 100 µg/mL (≈ 531 µM)
MIC (P. rettgeri GN466): 50 µg/mL (≈ 266 µM)
MIC (Serratia marcescens): 100 µg/mL (≈ 531 µM)
Acute toxicity (death of mice) (mice): did not cause death of mice
MIC (P. mirabilis IFM OM-9): 25 µg/mL (≈ 133 µM)
MIC [1]: 200 µg/mL (≈ 1060 µM)
MIC [2]: 100 µg/mL (≈ 531 µM)
MIC (E. coli K-12): 200 µg/mL (≈ 1060 µM)
MIC [3]: 25 µg/mL (≈ 133 µM)
MIC (Proteus vulgaris OX19): 200 µg/mL (≈ 1060 µM)
MIC [4]: 200 µg/mL (≈ 1060 µM)
MIC [5]: 25 µg/mL (≈ 133 µM)
MIC (Micrococcus luteus FDA16): > 200 µg/mL
MIC (B. cereus ATCC10702): 50 µg/mL (≈ 266 µM)
IC50 [6]: 0.012 µg/mL (≈ 0.0637 µM)
MIC (S. flexnelli 4b JS1811): 100 µg/mL (≈ 531 µM)
Solubility (Solubility): highly soluble in water
MIC (Escherichia coli NIHJ): 100 µg/mL (≈ 531 µM)
Cytotoxicity (given in brackets) (MT-4 cells; 0.1 μg/ml): -
Cytotoxicity (given in brackets) (MT-4 cells; 1 μg/ml): -
Cytotoxicity (given in brackets) (MT-4 cells; 10 μg/ml): -
MIC (B. subtilis NRRL B-558): 25 µg/mL (≈ 133 µM)
MIC (S. aureus Smith): 6.25 µg/mL (≈ 33.2 µM)
MIC (B. subtilis PC1219): 25 µg/mL (≈ 133 µM)

NCCCNC(=O)C[C@H](N)CCCN [Compound (Ib), (R)-3,6-diamino-N-(3-aminopropyl)hexanamide]
activity at 0.1 µg/mL (HIV (HTLV-IIIB strain)): 80%
activity at 1 µg/mL (HIV (HTLV-IIIB strain)): 10%
activity at 10 µg/mL (HIV (HTLV-IIIB strain)): 5%
MIC (Bacillus anthracis): 200 µg/mL (≈ 989 µM)
MIC (P. rettgeri GN466): 50 µg/mL (≈ 247 µM)
MIC (Serratia marcescens): 200 µg/mL (≈ 989 µM)
Acute toxicity (death of mice) (mice): did not cause death of mice
MIC (P. mirabilis IFM OM-9): 50 µg/mL (≈ 247 µM)
MIC [1]: 200 µg/mL (≈ 989 µM)
MIC [2]: 200 µg/mL (≈ 989 µM)
MIC (E. coli K-12): 200 µg/mL (≈ 989 µM)
MIC [3]: 100 µg/mL (≈ 494 µM)
MIC (Proteus vulgaris OX19): 200 µg/mL (≈ 989 µM)
MIC [4]: > 200 µg/mL
MIC [5]: 200 µg/mL (≈ 989 µM)
MIC (Micrococcus luteus FDA16): > 200 µg/mL
MIC (B. cereus ATCC10702): 200 µg/mL (≈ 989 µM)
IC50 [6]: 0.028 µg/mL (≈ 0.138 µM)
MIC (S. flexnelli 4b JS1811): 200 µg/mL (≈ 989 µM)
Solubility (Solubility): highly soluble in water
MIC (Escherichia coli NIHJ): 200 µg/mL (≈ 989 µM)
Cytotoxicity (given in brackets) (MT-4 cells; 0.1 μg/ml): -
Cytotoxicity (given in brackets) (MT-4 cells; 1 μg/ml): -
Cytotoxicity (given in brackets) (MT-4 cells; 10 μg/ml): -
MIC (B. subtilis NRRL B-558): 100 µg/mL (≈ 494 µM)
MIC (S. aureus Smith): 50 µg/mL (≈ 247 µM)
MIC (B. subtilis PC1219): 100 µg/mL (≈ 494 µM)
